The values below come from ChEMBL document CHEMBL5726613, “5-(N-fused tricyclic aryl tetrahydroisoquinolin-6-yl) pyridin-3-yl acetic acid derivatives as inhibitors of human immunodeficiency virus replication” (2019).

The assay is described as follows: Inhibition of HIV Replication: A recombinant NL-RLuc proviral clone was constructed in which a section of the nef gene from NL4-3 was replaced with the Renilla Luciferase gene. This virus is fully infectious and can undergo multiple cycles of replication in cell culture. In addition, the luciferous reporter provides a simple and easy method for quantitating the extent of virus growth and consequently, the antiviral activity of test compounds. The plasmid pNLRLuc contains the proviral NL-Rluc DNA cloned into pUC18 at the PvuII site. The NL-RLuc virus was prepared by transfection of 293T cells with the plasmid pNLRLuc. Transfections were performed using the LipofectAMINE PLUS kit from Invitrogen (Carlsbad, Calif.) according to the manufacturer and the virus generated was titered in MT-2 cells. For susceptibility analyses, the titrated virus was used to infect MT-2 cells in the presence of compound, and after 5 days of incubation, cells were processed and quantitated for virus growth by the amount of expressed luciferase. Assay media was RPMI 1640 supplemented with 10% heat inactivated fetal bovine serum (FBS), 100 units/ml penicillin G/100 units/ml streptomycin, 10 mM HEPES buffer pH 7.55 and 2 mM L-glutamine. The results from at least 2 experiments were used to calculate the EC50 values. Luciferase was quantitated using the Dual Luciferase kit from Promega (Madison, Wis.). Susceptibility of viruses to compounds was determined by incubation in the presence of serial dilutions of the compound. The 50% effective concentration (EC50) was calculated by using the exponential form of the median effect equation where (Fa)=1/[1+(ED50/drug conc.)m] (Johnson Va., Byington R T. Infectivity Assay. In Techniques in HIV Research. ed. Aldovini A, Walker B D. 71-76. New York: Stockton Press. 1990). It is filed as cell-based. Particulars: HEK-293T.
A word on the EC50: it is the concentration giving half of the maximal effect. Consider `Cc1nc(C)c([C@H](OC(C)(C)C)C(=O)O)c(N2CCC(C)(C)CC2)c1-c1ccc2c(c1)CCN(c1ncnc3c1oc1ccccc13)C2`, for which the 50% effective concentration (EC50) is 1 nM.
Next, `Cc1ccc2c(c1)[nH]c1nc(N3CCc4cc(-c5c(C)nc(C)c([C@H](OC(C)(C)C)C(=O)O)c5N5CCC(C)(C)CC5)ccc4C3)nc(Cl)c12`: 5 nM; `Cc1nc(C)c([C@H](OC(C)(C)C)C(=O)O)c(N2CCC(C)(C)CC2)c1-c1ccc2c(c1)CCN(c1ncnc3c1sc1ccccc13)C2`: 4 nM; `Cc1nc(C)c([C@H](OC(C)(C)C)C(=O)O)c(N2CCC(C)(C)CC2)c1-c1ccc2c(c1)CCN(c1ncnc3[nH]c4ccccc4c13)C2`: 5 nM.
Next, `Cc1nc(C)c([C@H](OC(C)(C)C)C(=O)O)c(N2CCC(C)(C)CC2)c1-c1ccc2c(c1)CCN(c1ncnc3c1oc1ccc(F)cc13)C2`: 2 nM.
Next, `Cc1nc(C)c([C@H](OC(C)(C)C)C(=O)O)c(N2CCC(C)(C)CC2)c1-c1ccc2c(c1)CCN(c1ncnc3c1oc1cccc(F)c13)C2`: 3 nM; `CCn1c2ccc(C)cc2c2ncnc(N3CCc4cc(-c5c(C)nc(C)c([C@H](OC(C)(C)C)C(=O)O)c5N5CCC(C)(C)CC5)ccc4C3)c21`: 45 nM.
`Cc1nc(C)c([C@H](OC(C)(C)C)C(=O)O)c(N2CCC(C)(C)CC2)c1-c1ccc2c(c1)CCN(c1ncnc3sc4ccccc4c13)C2`: the concentration giving a half-maximal response (EC50) is 5 nM.
Turning to `Cc1nc(C)c([C@H](OC(C)(C)C)C(=O)O)c(N2CCC(C)(C)CC2)c1-c1ccc2c(c1)CCN(c1ncnc3c1[nH]c1ccccc13)C2`, the EC50 is 24 nM.
With `Cc1nc(C)c([C@H](OC(C)(C)C)C(=O)O)c(N2CCC(C)(C)CC2)c1-c1ccc2c(c1)CCN(c1ncnc3c1oc1ncccc13)C2`, the half-maximal effective concentration (EC50) is 1 nM.
Next, `Cc1nc(C)c([C@H](OC(C)(C)C)C(=O)O)c(N2CCC(C)(C)CC2)c1-c1ccc2c(c1)CCN(c1ccc3ccc4cccnc4c3n1)C2`: 3 nM; `CCOc1cccc2oc3c(N4CCc5cc(-c6c(C)nc(C)c([C@H](OC(C)(C)C)C(=O)O)c6N6CCC(C)(C)CC6)ccc5C4)ncnc3c12`: 1 nM; `Cc1ccc2[nH]c3c(N4CCc5cc(-c6c(C)nc(C)c([C@H](OC(C)(C)C)C(=O)O)c6N6CCC(C)(C)CC6)ccc5C4)ncnc3c2c1`: 13 nM.
Then `Cc1nc(C)c([C@H](OC(C)(C)C)C(=O)O)c(N2CCC(C)(C)CC2)c1-c1ccc2c(c1)CCN(c1nc3ccccc3c3ccccc13)C2`, with 31 nM.
